Data published in patent US20250296938A1, “Compounds that Interact with the Ras Superfamily for the Treatment of Cancers, Inflammatory Diseases, Rasopathies, and Fibrotic Disease” (SHY Therapeutics, LLC, priority 2018, published 2025).

Test system: MIA PaCa-2 pancreatic cancer cell line
Assay: Cell proliferation assay (DAPI)
Type: cell-based
Conditions: Homo sapiens, MIA PaCa-2 (Table 5A); for inhibition at 10 µM: read-out: % Inhibition of cell proliferation, MIA PaCa-2 % inh
Experimental: Cell lines: Human NSCLC cells NCI-H1975 and NCI-H1299, and tumor-derived pancreatic cancer cell lines Panc-1, MIA-PACA2, and BxPC3, were all purchased from American Type Culture Collection and grown in complete RPMI medium (BxPC3, NCI-H1975 and NCI-H1299) or DMEM-High Glucose (Panc1 and MIA-PaCa-2), supplemented with penicillin (100 U/mL), streptomycin (100 μg/mL), and 10% heat-inactivated FBS at 37° C. in a humidified incubator with 5% CO2.
Method: Cells were plated at 2000 to 5000 cells/well density in 96-wells plate and cultured ON. Small molecules to be tested were added to the cells in the final concentration of 10 µM in the presence of 0.3% DMSO and 10% FBS, and incubated for 2-4 days at 37° C. in a humidified incubator with 5% CO2. For IC50 value determination, serial dilutions of compounds were added to cells under the same conditions.
Assay: At the end of the incubation period, cell cultures were fixed with a 50-50 mixture (v/v) acetone-methanol for 10 minutes at −20° C., followed by rehydration in PBS for 10 minutes at room temperature. DNA total content was determined by staining cells with DAPI (1 ug/ml) in PBS for 10 minutes at room temperature, followed by 3 washes with PBS. After staining, DAPI fluorescence was recorded (358 nm excitation/461 nm emission) with the 96-well plate reader Molecular Devices Spectramax M3; degree of small molecule-dependent proliferation inhibition was calculated from raw data.

Compound	inhibition at 10 µM [%]	IC50 [nM]
COc1cccc(-c2sc3nc(-c4nccn4C)nc(NC4CCC(OC)C4)c3c2C)c1F (centres unmarked) [drawing 628]	76 to 100	750 to 1000
COc1cccc(-c2sc3nc(-c4nccn4C)nc(N[C@@H]4CC[C@H](OC)C4)c3c2C)c1F [drawing 629]	76 to 100	750 to 1000
COC1CCC(Nc2nc(-c3nccn3C)nc3sc(-c4cccc5[nH]ncc45)c(C)c23)C1 (centres unmarked) [drawing 630]	76 to 100	> 1000
COc1cccc(-c2sc3nc(-c4nc(C)cn4C)nc(N[C@@H]4CC[C@H](OC)C4)c3c2C)c1F [drawing 631]	76 to 100	750 to 1000
CO[C@H]1CC[C@@H](Nc2nc(-c3nc(C)cn3C)nc3sc(-c4cccc5[nH]ncc45)c(C)c23)C1 [drawing 632]	76 to 100	> 1000
COCCn1ccnc1-c1nc(O)c2scc(-c3ccc(OCC(C)C)nc3)c2n1 [drawing 633]	76 to 100	< 500
CC(C)COc1ccc(-c2csc3c(O)nc(-c4nccn4Cc4ccccn4)nc23)cn1 [drawing 634]	76 to 100	500 to 749
COc1cccc(Cn2ccnc2-c2nc(O)c3scc(-c4ccc(OCC(C)C)nc4)c3n2)c1 [drawing 635]	76 to 100	< 500
CO[C@H]1CC[C@@H](Nc2nc(-c3nccn3C)nc(C(=O)N3CCc4c(O)cccc4C3)c2C)C1 [drawing 636]	1 to 25	> 1000
CO[C@H]1C[C@@H](Nc2nc(-c3ccccn3)nc3sccc23)C1 [drawing 637]	1 to 25	> 1000
CO[C@H]1C[C@@H](Nc2nc(-c3nccn3C)nc3sccc23)C1 [drawing 638]	26 to 50	> 1000
Cn1ccc(-c2sc3nc(-c4nccn4C)nc(O)c3c2-c2ccccc2)n1 [drawing 639]	76 to 100	> 1000
CO[C@H]1C[C@@H](Nc2nc(-c3nccn3C)nc3sc(-c4ccn(C)n4)c(-c4ccccc4)c23)C1 [drawing 640]	76 to 100	> 1000
CO[C@H]1C[C@H](Nc2nc(-c3nccn3C)nc3sc(-c4ccn(C)n4)c(-c4ccccc4)c23)C1 [drawing 641]	76 to 100	> 1000
CN(C)CCOCCNc1nc(-c2nccn2C)nc2sc(-c3ccn(C)n3)c(-c3ccccc3)c12 [drawing 642]	76 to 100	> 1000
Cn1ccc(-c2sc3nc(-c4nccn4C)nc(N[C@H]4C[C@@H](O)C4)c3c2-c2ccccc2)n1 [drawing 643]	0	> 1000
CO[C@H]1C[C@@H](Nc2nc(-c3ncc[nH]3)nc3sc(-c4ccn(C)n4)c(-c4ccccc4)c23)C1 [drawing 645]	76 to 100	750 to 1000

Compound	inhibition at 10 µM [%]	IC50 [nM]
CO[C@H]1CC[C@@H](Nc2nc(-c3ncc[nH]3)nc3sc(-c4ccn(C)n4)c(-c4ccccc4)c23)C1 [drawing 646]	76 to 100	750 to 1000
CO[C@H]1CC[C@@H](Nc2nc(-c3nccn3C)nc3sc(-c4ccn(C(C)C)n4)c(-c4ccccc4)c23)C1 [drawing 647]	76 to 100	500 to 749
COc1nc(-c2ccccn2)nc2c(-c3ccccn3)csc12 [drawing 648]	51 to 75	> 1000
CO[C@H]1C[C@@H](Nc2nc(-c3nccn3C)nc3sc(-c4ccn(C)n4)c(C)c23)C1 [drawing 649]	76 to 100	> 1000
CO[C@H]1CC[C@@H](Nc2nc(-c3nccn3C)nc3sc(-c4ccn(C)n4)c(C)c23)C1 [drawing 650]	76 to 100	750 to 1000
Cc1c(-c2ccn(C)n2)sc2nc(-c3nccn3C)nc(NCCCS(C)(=O)=O)c12 [drawing 651]	0	> 1000
Cc1c(-c2ccn(C)n2)sc2nc(-c3nccn3C)nc(NCCCC(=O)N(C)C)c12 [drawing 652]	0	> 1000
Cc1c(-c2ccn(C)n2)sc2nc(-c3nccn3C)nc(NCCOC(=O)N(C)C)c12 [drawing 653]	26 to 50	> 1000
CO[C@H]1CC[C@@H](Nc2nc(-c3nccn3C)nc3sc(-c4ccn(C(C)C)n4)c(C)c23)C1 [drawing 654]	76 to 100	500 to 749
CO[C@H]1C[C@@H](Nc2nc(-c3nccn3C)nc3sc(C(=O)NC(C)C)c(-c4ccccc4)c23)C1 [drawing 655]	51 to 75	> 1000
COCCNC(=O)c1sc2nc(-c3nccn3C)nc(N[C@H]3C[C@@H](OC)C3)c2c1-c1ccccc1 [drawing 656]	26 to 50	> 1000
CO[C@H]1C[C@@H](Nc2nc(-c3nccn3C)nc3sc(C(=O)N4CCOCC4)c(-c4ccccc4)c23)C1 [drawing 657]	26 to 50	> 1000
COC1CCN(C(=O)c2sc3nc(-c4nccn4C)nc(N[C@H]4C[C@@H](OC)C4)c3c2-c2ccccc2)C1 (some centres unmarked) [drawing 658]	26 to 50	> 1000
CO[C@H]1CC[C@@H](Nc2nc(-c3nccn3C)nc3sc(C(=O)NC(C)C)c(-c4ccccc4)c23)C1 [drawing 659]	76 to 100	> 1000
COCCNC(=O)c1sc2nc(-c3nccn3C)nc(N[C@@H]3CC[C@H](OC)C3)c2c1-c1ccccc1 [drawing 660]	76 to 100	> 1000
CO[C@H]1CC[C@@H](Nc2nc(-c3nccn3C)nc3sc(C(=O)N4CCCC4)c(-c4ccccc4)c23)C1 [drawing 661]	76 to 100	> 1000
CO[C@H]1CC[C@@H](Nc2nc(-c3nccn3C)nc3sc(C(=O)N4CCOCC4)c(-c4ccccc4)c23)C1 [drawing 662]	51 to 75	> 1000
